Experimental data as given in patent US20230364057A1, “BACTERIAL DNA GYRASE INHIBITORS AND METHODS OF USE THEREOF” (THE FLORIDA INTERNATIONAL UNIVERSITY BOARD OF TRUSTEES, priority 2022, published 2023).
Values after ≈ are worked out from the molar mass of the structure shown. Read-outs that look alike come from different tables or passages of the source.

Columns and labels:
B. subtilis (ATCC 6633) = assay: Minimum inhibitory concentration, broth microdilution; settings: Bacillus subtilis, ATCC6633, read-out: Minimum Inhibitory Concentration B.subtilis
E. coli DNA gyrase [1] = biological target: T1, E. coli DNA gyrase (Escherichia coli (strain K12), UniProt P0AES4+P0AES6); assay: biochemical; format: biochemical
E. coli DNA gyrase [2] = biological target: T1, E. coli DNA gyrase; assay: Agarose gel-based DNA gyrase inhibition assay; format: biochemical
Protocol: 100 ng of DNA gyrase was used to supercoil the rx pAB1 in the presence of different concentrations of a gyrase inhibitor. […] Samples were analyzed by electrophoresis in 1% w/v agarose gels followed by ethidium bromide staining and photographed under UV light.

S. aureus (ATCC 14775) = assay: Minimum inhibitory concentration, broth microdilution; settings: for MIC: Staphylococcus aureus
MRSA = assay: as above; settings: for MIC: Staphylococcus aureus, MRSA
Protocol: (§1) Antibacterial minimum inhibitory concentrations (MICs) were obtained from three independent experiments using broth microdilution methods in 96-well plates according to Clinical and Laboratory Standards Institute guidelines. Cells were culture from singles colonies in MHIIB medium for 24 h at 37° C. in agitation (200 RPM). The cultures were then diluted using the same media to reach an OD600 of 0.1. Then, 50 µL of the diluted cultures were added to the plates holding 50 µL of serially diluted compounds in MHIIB. The plates were incubated at 37° C. for 20 h. The starting inoculum was fixated to 10^5 colony-forming units per ml.

Mtb DNA gyrase = Mtb DNA gyrase (Mycobacterium tuberculosis (strain ATCC 25618 / H37Rv), UniProt P9WG45+P9WG47); assay: Mtb DNA gyrase inhibition assay (gel-based); format: biochemical; settings: Table 5, Mtb gyrase; read-out: IC50 (µM) Mtb
Protocol: The IC50 against E. coli (A) and Mtb (C) gyrase were determined using the gel-based gyrase inhibition assays. The gyrase mediated DNA cleavage assays (B and D) were performed using pBR322. (A) 229 inhibits E. coli gyrase. Lane 1, rx pAB1. […] Lane 1, rx pAB1. […] 100 µM of CPDs were used. Symbols rx, nk, In, and sc represent relaxed, nicked, linear, and supercoiled DNA, respectively.
Agarose gel-based DNA gyrase inhibition assays were performed in 30 µL of 1 ×gyrase buffer (35 mM Tris-HCl, 24 mM KCl, 4 mM MgCl2, 2 mM DTT, 1.75 mM ATP, 0.1 mg/mL BSA, 6.5% glycerol, pH7.5) containing 400 ng of rx pAB1 at 37° C. 100 ng of DNA gyrase was used to supercoil the rx pAB1 in the presence of different concentrations of a gyrase inhibitor. After 15 minutes of incubation with the inhibitor at 37° C., all reactions were stopped with 1 µL of stop solution (3% SDS and 250 mM EDTA). Samples were analyzed by electrophoresis in 1% w/v agarose gels followed by ethidium bromide staining and photographed under UV light.

Mtb = Mtb whole cell assay (% inhibition, MIC); format: cell-based, Mycobacterium tuberculosis; settings: Mycobacterium tuberculosis; Table 5 (same values in Table 6 at 20 µM)
E. coli (ATCC 25922) = assay: Minimum inhibitory concentration, broth microdilution; settings: Escherichia coli, ATCC25922, read-out: Minimum Inhibitory Concentration E. coli, Tables 3a-3c
Protocol: as §1

[3] = IC50 ([…]-50 µM), bin of Table 2
[4] = ATCC14775, read-out: Minimum Inhibitory Concentration S.aureus
[5] = read-out: Minimum Inhibitory Concentration S.aureus MRSA
[6] = IC50 (µM) EC, Table 5, E. coli gyrase
[7] = ATCC14775, read-out: MIC (µM) SA
[8] = IC50 (50-200 µM), bin of Table 2
[9] = IC50 (15-[…] µM), bin of Table 2

| SMILES | MIC (B. subtilis (ATCC 6633)) [µM] | inhibition of E. coli DNA gyrase activities (E. coli DNA gyrase [2]; 200 µM of compounds) | MIC (S. aureus (ATCC 14775); [4]) [µM] | MIC (MRSA; [5]) [µM] | inhibition of E. coli DNA gyrase activities (E. coli DNA gyrase [2]; 50 µM of compounds) | other results |
| --- | --- | --- | --- | --- | --- | --- |
| Cc1ccccc1NC1=C/C(=N/S(=O)(=O)c2ccc(C(=O)O)cc2)c2ccccc2C1=O [Compound 4] | 100 (≈ 44.6 µg/mL) | completely inhibited | 50 (≈ 22.3 µg/mL) | 50 (≈ 22.3 µg/mL) | – | IC50 (E. coli DNA gyrase [1]; [3]): 25 to 50 µM |
| Cc1cc(C)c2c(c1)C(=NNc1ccc(C(=O)O)cc1)C(O)=N2 [Compound 9, 4-[2-(5,7-Dimethyl-2-oxoindol-3-yl)hydrazinyl]benzoic acid] | 25 (≈ 7.73 µg/mL) | completely inhibited | 3.12 (≈ 0.967 µg/mL) | 3.12 (≈ 0.967 µg/mL) | completely inhibited | inhibition of E. coli DNA gyrase activities (E. coli DNA gyrase [1]): potent gyrase inhibitor; growth of S. aureus (S. aureus (ATCC 14775)): strongly inhibited the growth; growth of MRSA (MRSA): strongly inhibited the growth |
| Cc1cc(/C=C2\SC(=S)N=C2O)c(C)n1-c1cccc(O)c1 [Compound 21] | 100 (≈ 33 µg/mL) | completely inhibited | – | – | completely inhibited | IC50 (E. coli DNA gyrase [1]; [3]): 25 to 50 µM |
| Cc1c(CCC(=O)O)c(=O)oc2cc3occ(-c4ccc(Cl)cc4)c3cc12 [Compound 25] | – | completely inhibited | – | – | almost completely inhibited | IC50 (Mtb DNA gyrase): 65 µM; inhibition of E. coli DNA gyrase activities (E. coli DNA gyrase [1]): potent bacterial DNA gyrase inhibitors; IC50 (E. coli DNA gyrase [1]; [6]): 11.5 µM; MIC (S. aureus (ATCC 14775); [7]): > 200 µM; inhibition at 20 µM (Mtb): 0.8% |
| O=C(O)CCCCCN1C(=O)/C(=C\c2ccc(-c3ccc(Cl)cc3)o2)SC1=S [Compound 36] | 12.5 (≈ 5.45 µg/mL) | completely inhibited | – | – | completely inhibited | – |
| O=C(O)CCCN1C(=O)C(=Cc2ccc(-c3nc4ccccc4s3)o2)SC1=S [Compound 41] | 6.25 (≈ 2.69 µg/mL) | completely inhibited | – | – | completely inhibited | – |
| O=C1/C(=C\c2ccc(O)cc2)SC(=S)N1Cc1ccccc1 [Compound 44] | 25 (≈ 8.19 µg/mL) | completely inhibited | 12.5 (≈ 4.09 µg/mL) | 25 (≈ 8.19 µg/mL) | – | IC50 (E. coli DNA gyrase [1]; [8]): 50 to 200 µM |
| CN1C[C@H](CNC(=O)OCc2ccccc2)C[C@@H]2c3cccc4c3c(cn4C)C[C@H]21 [Compound 45] | 100 (≈ 40.4 µg/mL) | almost completely inhibited | 100 (≈ 40.4 µg/mL) | 100 (≈ 40.4 µg/mL) | – | IC50 (E. coli DNA gyrase [1]; [8]): 50 to 200 µM |
| Cc1ccc(-c2csc(NC(=O)c3cccc(C)c3)c2C(=O)O)cc1 [Compound 58] | 100 (≈ 35.1 µg/mL) | completely inhibited | 100 (≈ 35.1 µg/mL) | 100 (≈ 35.1 µg/mL) | – | IC50 (E. coli DNA gyrase [1]; [8]): 50 to 200 µM |
| COc1cc2ccccc2cc1C(=O)NC(=S)Nc1ccc(C(=O)O)cc1 [Compound 72] | – | – | – | – | – | MIC (E. coli (ATCC 25922)): 100 µM (≈ 38 µg/mL) |
| O=C(O)c1cc(O)c2c(c1)C(=O)c1cccc(O)c1C2=O [Compound 82] | 50 (≈ 14.2 µg/mL) | almost completely inhibited | 50 (≈ 14.2 µg/mL) | – | – | IC50 (E. coli DNA gyrase [1]; [8]): 50 to 200 µM |
| CCc1ccc(S(=O)(=O)/N=C2/C=C(Nc3ccc(C(=O)O)cc3)C(=O)c3ccccc32)cc1 [Compound 104] | 50 (≈ 23 µg/mL) | – | 100 (≈ 46.1 µg/mL) | 100 (≈ 46.1 µg/mL) | completely inhibited | IC50 (E. coli DNA gyrase [1]; [3]): 25 to 50 µM |
| COc1cccc(-n2c(C)cc(/C=C3/C(=N)N4C(=NC3=O)SN=C4[S+](C)[O-])c2C)c1 (centres unmarked) [Compound 105] | 25 (≈ 11 µg/mL) | – | 50 (≈ 22.1 µg/mL) | 100 (≈ 44.2 µg/mL) | completely inhibited | IC50 (E. coli DNA gyrase [1]; [3]): 25 to 50 µM |
| O=C(O)c1ccc(NN=C2c3cc(Br)ccc3NC2O)cc1 (centres unmarked) [Compound 111] | 100 (≈ 36.2 µg/mL) | – | – | – | completely inhibited | – |
| Cc1c(CC(=O)O)c(=O)oc2c(C)c3occ(-c4ccc(Br)cc4)c3cc12 [Compound 117] | – | – | 1.56 (≈ 0.667 µg/mL) | 1.56 (≈ 0.667 µg/mL) | completely inhibited | IC50 (Mtb DNA gyrase): 50 µM; IC50 (E. coli DNA gyrase [1]; [6]): 15.7 µM; MIC (S. aureus (ATCC 14775); [7]): 1.6 µM (≈ 0.684 µg/mL); MIC (MRSA; read-out: MIC (µM) MRSA): 1.6 µM (≈ 0.684 µg/mL); inhibition at 20 µM (Mtb): 24.7% |
| Cc1c(C)c2cc3c(-c4ccc(Br)cc4)coc3c(C)c2oc1=O [Compound 118] | – | – | – | – | – | IC50 (Mtb DNA gyrase): > 200 µM; IC50 (E. coli DNA gyrase [1]; [6]): > 200 µM; MIC (S. aureus (ATCC 14775); [7]): > 200 µM; MIC (MRSA; read-out: MIC (µM) MRSA): > 200 µM; inhibition at 20 µM (Mtb): 21.8% |
| Cc1c(CCC(=O)O)c(=O)oc2c(C)c3occ(-c4ccc(Cl)cc4)c3cc12 [Compound 120] | – | – | 1.56 (≈ 0.619 µg/mL) | 1.56 (≈ 0.619 µg/mL) | completely inhibited | IC50 (Mtb DNA gyrase): 33 µM; IC50 (E. coli DNA gyrase [1]; [6]): 7.9 µM; MIC (S. aureus (ATCC 14775); [7]): 1.6 µM (≈ 0.635 µg/mL); MIC (MRSA; read-out: MIC (µM) MRSA): 1.6 µM (≈ 0.635 µg/mL); inhibition at 20 µM (Mtb): 18.7% |
| Cc1c(CCC(=O)O)c(=O)oc2c(C)c3occ(-c4ccccc4)c3cc12 [Compound 121] | 50 (≈ 18.1 µg/mL) | – | 3.12 (≈ 1.13 µg/mL) | 3.12 (≈ 1.13 µg/mL) | – | IC50 (Mtb DNA gyrase): 58 µM; IC50 (E. coli DNA gyrase [1]; [6]): 28 µM; MIC (S. aureus (ATCC 14775); [7]): 3.1 µM (≈ 1.12 µg/mL); MIC (MRSA; read-out: MIC (µM) MRSA): 3.1 µM (≈ 1.12 µg/mL); inhibition at 20 µM (Mtb): 36.7% |
| Cc1coc2cc3oc(=O)c(CCC(=O)O)c(C)c3cc12 [Compound 122] | – | – | – | – | potently inhibited | IC50 (Mtb DNA gyrase): > 200 µM; IC50 (E. coli DNA gyrase [1]; [6]): > 200 µM; MIC (S. aureus (ATCC 14775); [7]): > 200 µM; MIC (MRSA; read-out: MIC (µM) MRSA): > 200 µM; inhibition at 20 µM (Mtb): 15.7% |
| Cc1c(CCC(=O)O)c(=O)oc2c(C)c3occ(-c4ccc(F)cc4)c3cc12 [Compound 123] | 6.25 (≈ 2.38 µg/mL) | – | 1.56 (≈ 0.593 µg/mL) | 1.56 (≈ 0.593 µg/mL) | completely inhibited | IC50 (Mtb DNA gyrase): 34 µM; IC50 (E. coli DNA gyrase [1]; [6]): 28.1 µM; MIC (S. aureus (ATCC 14775); [7]): 1.6 µM (≈ 0.609 µg/mL); MIC (MRSA; read-out: MIC (µM) MRSA): 1.6 µM (≈ 0.609 µg/mL); inhibition at 20 µM (Mtb): 31.8% |
| Cc1c(CCC(=O)O)c(=O)oc2c(C)c3occ(-c4ccc(N5CCCC5)cc4)c3cc12 [Compound 125] | – | – | – | – | completely inhibited | IC50 (Mtb DNA gyrase): 55 µM; inhibition of E. coli DNA gyrase activities (E. coli DNA gyrase [1]): potently inhibited; IC50 (E. coli DNA gyrase [1]; [6]): 4.9 µM; growth of S. aureus (S. aureus (ATCC 14775)): did not inhibit the growth; MIC (S. aureus (ATCC 14775); [7]): > 200 µM; growth of MRSA (MRSA): did not inhibit the growth; inhibition at 20 µM (Mtb): 10.2% |
| O=C(O)c1ccc(/N=N/C2C(O)=Nc3ccc(Cl)cc32)cc1 (centres unmarked) [Compound 126] | 100 (≈ 31.6 µg/mL) | – | 100 (≈ 31.6 µg/mL) | 100 (≈ 31.6 µg/mL) | completely inhibited | – |
| Cc1ccc2nc3n(c2c1C)C/C(=C/c1ccc(-c2ccccc2C(=O)O)o1)[S+]3[O-] (centres unmarked) [Compound 155] | 50 (≈ 20.9 µg/mL) | – | 100 (≈ 41.8 µg/mL) | 50 (≈ 20.9 µg/mL) | completely inhibited | IC50 (E. coli DNA gyrase [1]; [9]): 15 to 25 µM |
| O=C(O)C(Cc1ccccc1)N1C(=O)/C(=C\C=C\c2ccco2)SC1=S (centres unmarked) [Compound 157] | 200 (≈ 77.1 µg/mL) | – | 200 (≈ 77.1 µg/mL) | 200 (≈ 77.1 µg/mL) | completely inhibited | – |
| O=[N+]([O-])c1cc(/C=N/Nc2nc3ccccc3[nH]2)c(O)cc1O [Compound 159] | 200 (≈ 62.7 µg/mL) | – | 50 (≈ 15.7 µg/mL) | 100 (≈ 31.3 µg/mL) | completely inhibited | – |
| CN1C(=O)C(=Cc2ccc(Sc3ccccc3)o2)C(=O)N(C)C1=S [Compound 161] | 200 (≈ 71.7 µg/mL) | – | – | – | completely inhibited | IC50 (E. coli DNA gyrase [1]; [9]): 15 to 25 µM |
| COc1cc(C(=O)Nc2scc(-c3ccc(Br)cc3)c2C(=O)O)cc(OC)c1OC [Compound 189] | 100 (≈ 49.2 µg/mL) | – | – | – | completely inhibited | IC50 (E. coli DNA gyrase [1]; [3]): 25 to 50 µM |
